The values below are quoted from earlier work in patent US20210329915A1, “ABSORPTION PROMOTER, FLYING-INSECT PEST REPELLENT FRAGRANCE-CONTAINING COMPOSITION, AND FLYING-INSECT PEST REPELLENT PRODUCT” (DAINIHON JOCHUGIKU Co., Ltd., priority 2018, published 2021).

As to `CC(O)CO` (stereo not drawn) [propylene glycol], the “Vapor pressure at 20° C.” value is 10.7 Pa.

Turning to `OCCOCc1ccccc1` [benzyl glycol], the “Vapor pressure at 20° C.” value is reported as 2.7 Pa.

`CCCCOCCOCCO` [diethylene glycol monobutyl ether]: the “Vapor pressure at 20° C.” value was 3 Pa.

With `CC(O)COC(C)COC(C)CO` (stereo not drawn) [tripropylene glycol], the “Vapor pressure at 20° C.” value is on record as 0.67 Pa.

As to `OCCOCCOCCO` [triethylene glycol], the “Vapor pressure at 20° C.” value is listed as 1 Pa.

For the compound `OCCOCCO` [diethylene glycol], the “Vapor pressure at 20° C.” value is on record as 3 Pa.
